Reference: patent US8673617B2, “Culture medium for Haemophilus influenzae type B” (Sanofi Pasteur SA, priority 2007, dated 2014)

Experiments:
[1] = tested on: Haemophilus influenzae serotype b; experiment: PRP production in liquid wheat peptone-based culture medium as a function of heme source (sandwich ELISA on supernatant); format: cell-based; details: wheat medium, 16 h
Protocol: (§1) The production of PRP obtained after 16 hours of bacterial culture in liquid plant peptones-based culture media in which the heme source was either hemin or protoporphyrin IX of animal origin (porcine protoporphyrin) in disodium salt form, or protoporphyrin IX of purely synthetic origin in disodium salt form was compared. The hemin and protoporphyrin IX concentration ranges in the culture media varied from about 0.010 g/l to about 2 g/l so as to obtain PRP titration curves as a function of the heme source tested and as a function of the plant peptone tested. An enzymatic hydrolysate of garden pea peptone provided by Kerry (Hy pea 7404) and a wheat peptone provided by Organotechnie (19559) were tested at a concentration in the culture medium equivalent to 0.87 g/l of protein nitrogen. By reference to the current methods for the production of PRP, PRP production was also measured in a medium that contains a peptone of animal origin, such as casein hydrolysate (HAC) provided by Solabia at a concentration in the medium equivalent to 0.87 g/l with increased concentrations of hemin (see table III).
(§2) 1.1) Preparation of the Media • 1.1.1. Stock solution of β-NAD (Fluka) at 1 g/l in water which was ultrafiltered and then sterilized by filtration through 0.22 μm. • 1.1.2. Stock solution of hemin (Sigma) at 0.25 g/l in water was ultrafiltered, comprising 5 ml of 25% aqueous ammonia (Cooper) to aid dissolution. The stock solution was sterilized by filtration through 0.22 μm. • 1.1.3. Stock solution of porcine protoporphyrin IX (Sigma) at 0.25 g/l in ultrafiltered water comprising 5 ml of 25% aqueous ammonia (Cooper) in order to facilitate the dissolution. The stock solution was sterilized by filtration through 0.22 μm. • 1.1.4. Stock solution of synthetic protoporphyrin IX at 0.25 g/l in ultrafiltered water comprising 5 ml of 25% aqueous ammonia (Cooper) in order to facilitate the dissolution. The stock solution was also heated to 80° C. in a water bath with stirring in order to complete the dissolution before being sterilized by filtration through 0.22 μm. The protoporphyrin IX, in disodium salt form, was synthesized according to the method described in the U.S. provisional patent application Ser. No. 12/057,574, filed Mar. 28, 2008 and application Ser. No. 60/943,735 and filed on Jun. 13, 2007 using the steps which are described in scheme 2. • The stock solutions of hemin and protoporphyrin IX were checked for their respective contents of active compounds after sterilizing filtration. The protoporphyrin IX and hemin contents were determined by Reversed Phase High Performance Liquid Chromatography (RP-HPLC). The chromatographic chain comprises a twin head pump module allowing the formation of a binary gradient, a programmable automatic injector, a diode array UV detector and a chromatographic column of the type Synergi 4 μm, Polar RP-80A (150×4.6) mm, ref 00F-4336-E0, Phenomenex. • The stock solution of hemin (Sigma) to be checked after filtration was diluted ⅓ in distilled water. The stock solutions of porcine protoporphyrin IX (Sigma) and of synthetic protoporphyrin IX to be checked after filtration were diluted ¼ in distilled water. In parallel, a calibration series was prepared in ammoniated water ranging from 0.025 g/l to 0.125 g/l of protoporphyrin IX from porcine protoporphyrin IX from Sigma (ref: 25838-5) and a calibration series ranging from 0.050 g/l to 0.150 g/l of hemin from hemin from Sigma (ref: H5533-256). The samples to be checked and the various solutions of the calibration series were injected in a volume of 20 μl (for the hemin solutions and samples) and of 5 μl (for the protoporphyrin IX solutions and samples). The initial mobile phase consisting of a volume for volume mixture of acetonitrile and 10 mM KH2PO4 pH 2.5 is set at a flow rate of 1 ml/min. A discontinuous gradient was then produced from this mobile phase in order to separate the molecules of interest which are detected at a wavelength of 400 nm. […]

[2] = tested on: Haemophilus influenzae serotype b; experiment: PRP production in liquid garden pea peptone-based culture medium as a function of heme source (sandwich ELISA on supernatant); format: cell-based; details: garden pea medium, 16 h
Protocol: as §1, with “The hemin and protoporphyrin IX concentration ranges in the culture media varied from about 0.010 g/l to about 2 g/l so as to obtain PRP titration curves as a function of the heme source tested and as a function of the plant peptone tested.” left out
as §2

[3] = synthetic protoporphyrin IX 9.96 μg/l
[4] = synthetic protoporphyrin IX 49.8 μg/l
[5] = synthetic protoporphyrin IX 99.6 μg/l
[6] = synthetic protoporphyrin IX 249 μg/l
[7] = synthetic protoporphyrin IX 498 μg/l
[8] = synthetic protoporphyrin IX 996 μg/l
[9] = synthetic protoporphyrin IX 1494 μg/l
[10] = synthetic protoporphyrin IX 1992 μg/l
[11] = porcine protoporphyrin IX 7.48 μg/l
[12] = porcine protoporphyrin IX 37.4 μg/l
[13] = porcine protoporphyrin IX 74.8 μg/l
[14] = porcine protoporphyrin IX 187 μg/l
[15] = porcine protoporphyrin IX 374 μg/l
[16] = porcine protoporphyrin IX 748 μg/l
[17] = porcine protoporphyrin IX 1122 μg/l
[18] = porcine protoporphyrin IX 1496 μg/l

Substance: protoporphyrin IX [Synthetic protoporphyrin IX]
- Mean PRP [1, 3]: 30.7 mg/L
- PRP in mg/l Assay 1 [1, 3]: 33.5 mg/L
- PRP in mg/l Assay 2 [1, 3]: 27.9 mg/L
- Mean PRP [1, 4]: 318 mg/L
- PRP in mg/l Assay 1 [1, 4]: 317 mg/L
- PRP in mg/l Assay 2 [1, 4]: 319 mg/L
- Mean PRP [1, 5]: 413 mg/L
- PRP in mg/l Assay 1 [1, 5]: 389 mg/L
- PRP in mg/l Assay 2 [1, 5]: 437 mg/L
- Mean PRP [1, 6]: 347.5 mg/L
- PRP in mg/l Assay 1 [1, 6]: 345 mg/L
- PRP in mg/l Assay 2 [1, 6]: 350 mg/L
- Mean PRP [1, 7]: 394.5 mg/L
- PRP in mg/l Assay 1 [1, 7]: 380 mg/L
- PRP in mg/l Assay 2 [1, 7]: 409 mg/L
- Mean PRP [1, 8]: 402.5 mg/L
- PRP in mg/l Assay 1 [1, 8]: 401 mg/L
- PRP in mg/l Assay 2 [1, 8]: 404 mg/L
- Mean PRP [1, 9]: 354 mg/L
- PRP in mg/l Assay 1 [1, 9]: 358 mg/L
- PRP in mg/l Assay 2 [1, 9]: 350 mg/L
- Mean PRP [1, 10]: 404 mg/L
- PRP in mg/l Assay 1 [1, 10]: 378 mg/L
- PRP in mg/l Assay 2 [1, 10]: 430 mg/L
- Mean PRP [2, 3]: 11.55 mg/L
- PRP in mg/l Assay 1 [2, 3]: 11.3 mg/L
- PRP in mg/l Assay 2 [2, 3]: 11.8 mg/L
- Mean PRP [2, 4]: 136.5 mg/L
- PRP in mg/l Assay 1 [2, 4]: 139 mg/L
- PRP in mg/l Assay 2 [2, 4]: 134 mg/L
- Mean PRP [2, 5]: 356.5 mg/L
- PRP in mg/l Assay 1 [2, 5]: 330 mg/L
- PRP in mg/l Assay 2 [2, 5]: 383 mg/L
- Mean PRP [2, 6]: 488 mg/L
- PRP in mg/l Assay 1 [2, 6]: 474 mg/L
- PRP in mg/l Assay 2 [2, 6]: 502 mg/L
- Mean PRP [2, 7]: 387.5 mg/L
- PRP in mg/l Assay 1 [2, 7]: 383 mg/L
- PRP in mg/l Assay 2 [2, 7]: 392 mg/L
- Mean PRP [2, 8]: 499 mg/L
- PRP in mg/l Assay 1 [2, 8]: 524 mg/L
- PRP in mg/l Assay 2 [2, 8]: 474 mg/L
- Mean PRP [2, 9]: 513 mg/L
- PRP in mg/l Assay 1 [2, 9]: 503 mg/L
- PRP in mg/l Assay 2 [2, 9]: 523 mg/L
- Mean PRP [2, 10]: 488.5 mg/L
- PRP in mg/l Assay 1 [2, 10]: 480 mg/L
- PRP in mg/l Assay 2 [2, 10]: 497 mg/L

Substance: protoporphyrin IX [Porcine protoporphyrin IX]
- Mean PRP [1, 11]: 26.9 mg/L
- PRP in mg/l Assay 1 [1, 11]: 25.5 mg/L
- PRP in mg/l Assay 2 [1, 11]: 28.3 mg/L
- Mean PRP [1, 12]: 142.5 mg/L
- PRP in mg/l Assay 1 [1, 12]: 136 mg/L
- PRP in mg/l Assay 2 [1, 12]: 149 mg/L
- Mean PRP [1, 13]: 364 mg/L
- PRP in mg/l Assay 1 [1, 13]: 429 mg/L
- PRP in mg/l Assay 2 [1, 13]: 299 mg/L
- Mean PRP [1, 14]: 430 mg/L
- PRP in mg/l Assay 1 [1, 14]: 452 mg/L
- PRP in mg/l Assay 2 [1, 14]: 408 mg/L
- Mean PRP [1, 15]: 385.5 mg/L
- PRP in mg/l Assay 1 [1, 15]: 397 mg/L
- PRP in mg/l Assay 2 [1, 15]: 374 mg/L
- Mean PRP [1, 16]: 388 mg/L
- PRP in mg/l Assay 1 [1, 16]: 399 mg/L
- PRP in mg/l Assay 2 [1, 16]: 377 mg/L
- Mean PRP [1, 17]: 387.5 mg/L
- PRP in mg/l Assay 1 [1, 17]: 446 mg/L
- PRP in mg/l Assay 2 [1, 17]: 329 mg/L
- Mean PRP [1, 18]: 373.5 mg/L
- PRP in mg/l Assay 1 [1, 18]: 464 mg/L
- PRP in mg/l Assay 2 [1, 18]: 283 mg/L
- Mean PRP [2, 11]: 15.6 mg/L
- PRP in mg/l Assay 1 [2, 11]: 15.1 mg/L
- PRP in mg/l Assay 2 [2, 11]: 16.1 mg/L
- Mean PRP [2, 12]: 146 mg/L
- PRP in mg/l Assay 1 [2, 12]: 143 mg/L
- PRP in mg/l Assay 2 [2, 12]: 149 mg/L
- Mean PRP [2, 13]: 349 mg/L
- PRP in mg/l Assay 1 [2, 13]: 344 mg/L
- PRP in mg/l Assay 2 [2, 13]: 354 mg/L
- Mean PRP [2, 14]: 470 mg/L
- PRP in mg/l Assay 1 [2, 14]: 450 mg/L
- PRP in mg/l Assay 2 [2, 14]: 490 mg/L
- Mean PRP [2, 15]: 423.5 mg/L
- PRP in mg/l Assay 1 [2, 15]: 415 mg/L
- PRP in mg/l Assay 2 [2, 15]: 432 mg/L
- Mean PRP [2, 16]: 509 mg/L
- PRP in mg/l Assay 1 [2, 16]: 495 mg/L
- PRP in mg/l Assay 2 [2, 16]: 523 mg/L
- Mean PRP [2, 17]: 521 mg/L
- PRP in mg/l Assay 1 [2, 17]: 492 mg/L
- PRP in mg/l Assay 2 [2, 17]: 550 mg/L
- Mean PRP [2, 18]: 479 mg/L
- PRP in mg/l Assay 1 [2, 18]: 466 mg/L
- PRP in mg/l Assay 2 [2, 18]: 493 mg/L
